According to publication PMC8151276, “An Integrated Approach toward NanoBRET Tracers for Analysis of GPCR Ligand Engagement” (Molecules, 2021):

What was measured:
Type in all cases: binding
FPR3 = target: T1, FPR3 (Homo sapiens, UniProt P25089); assay: NanoBRET screen HiBiT-FPR3 in HEK293
T1 construct: purchased Promega (in-house HiBiT-GPCR construct library, NanoBRET)
T1 sequence (P25089 1-353): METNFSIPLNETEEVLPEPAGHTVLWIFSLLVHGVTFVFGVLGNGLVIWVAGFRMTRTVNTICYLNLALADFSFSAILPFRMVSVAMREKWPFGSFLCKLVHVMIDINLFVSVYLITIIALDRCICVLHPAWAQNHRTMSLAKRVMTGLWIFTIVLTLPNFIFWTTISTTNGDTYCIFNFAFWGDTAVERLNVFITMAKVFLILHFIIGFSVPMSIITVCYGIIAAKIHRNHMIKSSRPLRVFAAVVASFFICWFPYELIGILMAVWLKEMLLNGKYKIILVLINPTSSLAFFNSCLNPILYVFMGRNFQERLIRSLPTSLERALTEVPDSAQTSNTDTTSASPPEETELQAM
Description: (§1) Each tracer candidate was screened across the entire library of HiBiT-GPCR constructs using NanoBRET as the detection modality. As depicted in Figure 4A, the specificity of interactions was evaluated through decrease in BRET due to competitive displacement of a bound tracer by excess parental compound. Each tracer was analyzed for binding to each HiBiT-GPCR fusion in the absence and in the presence of competing parental compound. Briefly, HEK293 cells were transfected with HiBiT-GPCR constructs diluted into promoterless DNA to reduce expression and maximize translocation to the cell surface. Each tracer candidate was then screened at concentrations of 1 μM and 0.1 μM across cells expressing these fusions. Cells were treated for 1.5 h with tracer either alone or in the presence of 20 μM competing parental compound (i.e., control). BRET was measured upon addition of purified LgBiT and subsequent complementation with HiBiT genetically fused to a GPCR. The specificity of interactions was assessed through a decrease in BRET signal due to competitive displacement of the bound tracer. To further gauge the robustness of these interactions, the fold response over the control (i.e., BRETtracer/BRETcontrol) was calculated. We chose a 1.5-fold response, which translates to ≥7-fold signal over noise as the minimal threshold required to score an interaction as positive. […]. Below we highlight the screening results obtained for our exemplary fluorescent tracers based on Clozapine, Amitriptyline and AZD1283.
(§2) HiBiT-GPCR DNA constructs were diluted in 10 mM Tris pH 8 to a final concentration of 0.01 μg/μL, arrayed in 96-well plates and stored at −20 °C. For transfection, HEK293 cells were suspended in Opti-MEM (without phenol red) supplemented with 2% fetal bovine serum (Seradigm) and 100 units/mL penicillin–streptomycin (Gibco) at a final concentration of 220,000 cells/mL and dispensed into white 96-well plates at 90 μL/well. Subsequent transfections and screens were carried using an Agilent Bravo Automated Liquid Handling Platform. First, the 96-well HiBiT DNA arrays were diluted 25-fold in Opti-MEM (without serum or phenol red) to a final concentration of 0.0004 μg/μL and 20 μL of the diluted DNAs were transferred into new 96-well plates. Next, promoterless carrier DNA (1 μg/μL) was diluted 25-fold (0.04 μg/μL) and then dispensed into the diluted arrays at 20 μL/well. Following brief mixing, Viafect transfection reagent (Promega) diluted 16-fold into Opti-MEM was dispensed into the plates at 40 μL/well. After mixing by pipetting, plates were incubated for 10 min on the pipetting station deck. The DNA-transfection reagent complexes were then added to plates containing cells. To facilitate the screen, 10 μL of DNA-transfection reagent complexes were added in duplicates to the top 4 and bottom 4 rows, resulting in two identical 48-well arrays per plate. Plates with transfected cells were incubated for 18–20 h at 37 °C/5% CO2. A screen of each tracer across the entire library using two different concentrations requires duplicate plates of transfected cells. Depending on the number of tracers being screened, transfections can be scaled up using the same ratios. The next day, for each tracer, four 20× screening solutions in tracer dilution buffer (Promega) were prepared: two duplicates at final concentration of 20 μM and two duplicates at a final concentration of 2 μM. A competing unmodified compound was added to one of each duplicate at a final concentration of 400 μM. The four resulting solutions were diluted 4-fold in Opti-MEM without serum or phenol red to generate 5× solutions (5 µM and 0.5 µM tracer +/− 100 μM competing compound). To screen the library, a BioTek MultiFlo FX liquid dispenser was used to dispense 22.5 µL of tracer solution to the top 4 rows and 22.5 µL tracer + competing compound solution to the 4 bottom rows. Plates were briefly mixed on an orbital shaker and incubated for 1.5 h at room temperature. […]

FZD8 = target: T2, FZD8 (Homo sapiens, UniProt Q9H461); assay: NanoBRET screen HiBiT-FZD8 in HEK293
T2 construct: purchased Promega (in-house HiBiT-GPCR construct library, NanoBRET)
T2 sequence (Q9H461 28-694): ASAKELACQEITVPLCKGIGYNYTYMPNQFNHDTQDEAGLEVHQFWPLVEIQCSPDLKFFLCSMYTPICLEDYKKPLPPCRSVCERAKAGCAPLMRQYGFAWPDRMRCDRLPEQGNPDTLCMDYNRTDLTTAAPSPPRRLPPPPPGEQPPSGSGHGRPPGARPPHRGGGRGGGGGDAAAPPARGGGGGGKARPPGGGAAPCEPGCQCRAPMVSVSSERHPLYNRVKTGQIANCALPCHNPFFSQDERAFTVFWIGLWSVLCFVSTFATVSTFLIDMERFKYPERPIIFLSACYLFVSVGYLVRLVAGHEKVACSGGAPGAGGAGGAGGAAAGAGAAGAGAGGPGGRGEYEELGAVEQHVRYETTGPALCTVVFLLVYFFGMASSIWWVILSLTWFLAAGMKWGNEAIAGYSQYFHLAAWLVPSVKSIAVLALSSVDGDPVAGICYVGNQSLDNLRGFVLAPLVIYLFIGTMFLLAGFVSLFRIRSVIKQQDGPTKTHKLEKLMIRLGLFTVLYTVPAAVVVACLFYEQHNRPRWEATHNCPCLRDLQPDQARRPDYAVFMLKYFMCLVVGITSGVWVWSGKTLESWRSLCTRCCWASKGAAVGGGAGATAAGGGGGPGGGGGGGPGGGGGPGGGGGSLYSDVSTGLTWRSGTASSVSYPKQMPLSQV
Description: as §1, §2

P2RY11 = target: T3, P2RY11 (Homo sapiens, UniProt Q96G91); assay: NanoBRET screen HiBiT-P2RY11 in HEK293
T3 construct: purchased Promega (in-house HiBiT-GPCR construct library, NanoBRET)
T3 sequence (Q96G91 1-374): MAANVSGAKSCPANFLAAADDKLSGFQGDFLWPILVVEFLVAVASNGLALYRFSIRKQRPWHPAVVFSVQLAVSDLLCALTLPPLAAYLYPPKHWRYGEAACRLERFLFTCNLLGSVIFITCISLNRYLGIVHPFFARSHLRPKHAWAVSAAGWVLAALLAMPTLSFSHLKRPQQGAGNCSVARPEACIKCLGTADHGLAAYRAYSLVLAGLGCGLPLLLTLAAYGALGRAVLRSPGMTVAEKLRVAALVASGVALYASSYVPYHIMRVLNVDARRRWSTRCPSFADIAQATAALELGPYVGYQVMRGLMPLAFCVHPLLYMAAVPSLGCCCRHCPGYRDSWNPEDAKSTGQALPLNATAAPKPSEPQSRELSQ
Description: as §1, §2

SSTR2 = target: T4, SSTR2 (Homo sapiens, UniProt P30874); assay: NanoBRET screen HiBiT-SSTR2 in HEK293
T4 construct: purchased Promega (in-house HiBiT-GPCR construct library, NanoBRET)
T4 sequence (P30874 whole entry): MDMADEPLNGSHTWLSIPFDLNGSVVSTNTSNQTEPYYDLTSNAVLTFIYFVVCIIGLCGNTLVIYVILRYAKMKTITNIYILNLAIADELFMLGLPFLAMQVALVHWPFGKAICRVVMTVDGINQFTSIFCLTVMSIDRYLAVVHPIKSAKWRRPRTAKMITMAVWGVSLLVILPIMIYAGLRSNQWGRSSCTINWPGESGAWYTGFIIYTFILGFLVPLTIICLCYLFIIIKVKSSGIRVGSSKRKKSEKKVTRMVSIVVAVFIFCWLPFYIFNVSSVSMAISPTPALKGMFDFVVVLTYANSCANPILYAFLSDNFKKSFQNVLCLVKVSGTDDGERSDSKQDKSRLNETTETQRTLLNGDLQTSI
Description: as §1, §2

DRD5 = target: T5, DRD5 (Homo sapiens, UniProt P21918); assay: NanoBRET screen HiBiT-DRD5 in HEK293
T5 construct: purchased Promega (in-house HiBiT-GPCR construct library, NanoBRET)
T5 sequence (P21918 whole entry): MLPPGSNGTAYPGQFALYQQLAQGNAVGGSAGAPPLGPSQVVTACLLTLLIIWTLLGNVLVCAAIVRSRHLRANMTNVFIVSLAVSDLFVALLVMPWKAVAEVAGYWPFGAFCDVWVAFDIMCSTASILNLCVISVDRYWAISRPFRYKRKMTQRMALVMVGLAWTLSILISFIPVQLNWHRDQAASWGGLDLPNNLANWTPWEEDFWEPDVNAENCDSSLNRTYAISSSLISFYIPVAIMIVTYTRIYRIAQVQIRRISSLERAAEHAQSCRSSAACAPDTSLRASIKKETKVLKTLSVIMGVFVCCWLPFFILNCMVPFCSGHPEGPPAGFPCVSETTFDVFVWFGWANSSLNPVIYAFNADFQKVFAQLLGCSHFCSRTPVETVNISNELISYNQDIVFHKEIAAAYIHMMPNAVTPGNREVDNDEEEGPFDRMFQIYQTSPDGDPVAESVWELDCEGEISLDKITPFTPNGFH
Description: as §1, §2

Row | Compound | NanoBRET Fold Response (FPR3; FPR3, tracer 0.1μM) | NanoBRET Fold Response (FPR3; FPR3, tracer 1μM) | NanoBRET Fold Response (FZD8; FZD8, tracer 0.1μM) | NanoBRET Fold Response (FZD8; FZD8, tracer 1μM) | NanoBRET Fold Response (P2RY11; P2RY11, tracer 0.1μM) | NanoBRET Fold Response (P2RY11; P2RY11, tracer 1μM) | NanoBRET Fold Response (SSTR2; SSTR2, tracer 0.1μM) | NanoBRET Fold Response (SSTR2; SSTR2, tracer 1μM) | NanoBRET Fold Response (DRD5; DRD5, tracer 0.1μM) | NanoBRET Fold Response (DRD5; DRD5, tracer 1μM) | further results
1 | COc1ccccc1N1CCN(CCCCN2C(=O)c3ccc(CNC(=O)CCOCCOCCOCCOCCNC(=O)CCc4ccc5n4[B-](F)(F)[N+]4=C(c6ccc[nH]6)C=CC4=C5)cc3C2=O)CC1 [NAN-190-2-NB590] | 1.00 | 0.74 | 0.95 | 1.03 | 1.09 | 0.99 | 0.99 | 1.03 | 1.02 | 1.21 | 
2 | CN1CCN(C2=Nc3cc(Cl)ccc3N(CC(=O)NCCOCCOCCOCCOCCNC(=O)CCc3ccc4n3[B-](F)(F)[N+]3=C(c5ccc[nH]5)C=CC3=C4)c3ccccc32)CC1 [Clozapine-c-2-NB590] |  |  |  |  |  |  |  |  |  |  | NanoBRET Fold Response (FPR3; FPR3, 0.1μM tracer): 1.08; NanoBRET Fold Response (FPR3; FPR3, 1μM tracer): 1.01; NanoBRET Fold Response (FZD8; FZD8, 0.1μM tracer): 0.97; NanoBRET Fold Response (FZD8; FZD8, 1μM tracer): 1.04; NanoBRET Fold Response (P2RY11; P2RY11, 0.1μM tracer): 0.93; NanoBRET Fold Response (P2RY11; P2RY11, 1μM tracer): 0.98; NanoBRET Fold Response (SSTR2; SSTR2, 0.1μM tracer): 0.97; NanoBRET Fold Response (SSTR2; SSTR2, 1μM tracer): 1.00; NanoBRET Fold Response (DRD5; DRD5, 0.1μM tracer): 0.98; NanoBRET Fold Response (DRD5; DRD5, 1μM tracer): 1.16
3 | COc1ccc2[nH]c(-c3ccc(CNC(=O)CCOCCOCCOCCOCCNC(=O)CCc4ccc5n4[B-](F)(F)[N+]4=C(c6ccc[nH]6)C=CC4=C5)cc3)c(CCNC(C)=O)c2n1 [AzomelatoninICO9-2-NB590] |  |  |  |  |  |  |  |  |  |  | NanoBRET Fold Response (FPR3; 0.1μM tracer): 1.46; NanoBRET Fold Response (FPR3; 1μM tracer): 1.02; NanoBRET Fold Response (FZD8; 0.1μM tracer): 0.91; NanoBRET Fold Response (FZD8; 1μM tracer): 1.03; NanoBRET Fold Response (P2RY11; 0.1μM tracer): 1.19; NanoBRET Fold Response (P2RY11; 1μM tracer): 0.97; NanoBRET Fold Response (SSTR2; 0.1μM tracer): 1.10; NanoBRET Fold Response (SSTR2; 1μM tracer): 1.00; NanoBRET Fold Response (DRD5; 0.1μM tracer): 1.14; NanoBRET Fold Response (DRD5; 1μM tracer): 0.93
4 | O=C(CCOCCOCCOCCOCCNC(=O)CCc1ccc2n1[B-](F)(F)[N+]1=C(c3ccc[nH]3)C=CC1=C2)NCCCN1CCN(C2=Nc3cc(Cl)ccc3Nc3ccccc32)CC1 [Clozapine-a-2-NB590] |  |  |  |  |  |  |  |  |  |  | NanoBRET Fold Response (FPR3; FPR3, 0.1μM tracer): 0.92; NanoBRET Fold Response (FPR3; FPR3, 1μM tracer): 1.30; NanoBRET Fold Response (FZD8; FZD8, 0.1μM tracer): 1.02; NanoBRET Fold Response (FZD8; FZD8, 1μM tracer): 1.00; NanoBRET Fold Response (P2RY11; P2RY11, 0.1μM tracer): 1.04; NanoBRET Fold Response (P2RY11; P2RY11, 1μM tracer): 0.93; NanoBRET Fold Response (SSTR2; SSTR2, 0.1μM tracer): 1.03; NanoBRET Fold Response (SSTR2; SSTR2, 1μM tracer): 1.07; NanoBRET Fold Response (DRD5; DRD5, 0.1μM tracer): 2.41; NanoBRET Fold Response (DRD5; DRD5, 1μM tracer): 2.86
5 | CCCn1c(=O)c2[nH]c(-c3ccc(OCC(=O)NCCNC(=O)CCOCCNC(=O)c4ccc(CNC(=O)CCc5ccc6n5[B-](F)(F)[N+]5=C(c7ccc[nH]7)C=CC5=C6)cc4)cc3)nc2n(CCC)c1=O [XAC-3-NB590] | 0.78 | 1.04 | 0.95 | 1.02 | 1.21 | 1.25 | 0.97 | 1.06 | 0.99 | 1.00 | 
6 | O=C(CCc1ccc2n1[B-](F)(F)[N+]1=C(c3ccc[nH]3)C=CC1=C2)NCc1ccc(C(=O)NCCOCCOCCNCC(O)COc2cccc3ccccc23)cc1 (stereo not shown) [Propranolol-3-NB590] |  |  |  |  |  |  |  |  |  |  | NanoBRET Fold Response (FPR3; FPR3, 0.1μM): 1.03; NanoBRET Fold Response (FPR3; FPR3, 1μM): 1.03; NanoBRET Fold Response (FZD8; FZD8, 0.1μM): 1.01; NanoBRET Fold Response (FZD8; FZD8, 1μM): 1.02; NanoBRET Fold Response (P2RY11; P2RY11, 0.1μM): 1.03; NanoBRET Fold Response (P2RY11; P2RY11, 1μM): 0.96; NanoBRET Fold Response (SSTR2; SSTR2, 0.1μM): 1.04; NanoBRET Fold Response (SSTR2; SSTR2, 1μM): 1.01; NanoBRET Fold Response (DRD5; DRD5, 0.1μM): 1.03; NanoBRET Fold Response (DRD5; DRD5, 1μM): 1.00
7 | O=C(CCc1ccc2n1[B-](F)(F)[N+]1=C(c3ccc[nH]3)C=CC1=C2)NCc1ccc(C(=O)NCCOCCC(=O)N[C@@H]2CC[C@@]3(O)[C@H]4Cc5ccc(O)c6c5[C@@]3(CCN4CC3CC3)[C@H]2O6)cc1 [Naltrexone-3-NB590] | 0.82 | 0.92 | 0.90 | 0.78 | 1.26 | 0.71 | 1.06 | 0.93 | 1.25 | 1.07 | 
8 | N#CN=C(NCCCOc1cccc(CN2CCCCC2)c1)NCCNC(=O)CCOCCOCCOCCOCCNC(=O)CCc1ccc2n1[B-](F)(F)[N+]1=C(c3ccc[nH]3)C=CC1=C2 [Aminopotentidine-2-NB590] | 1.21 | 1.13 | 0.98 | 1.01 | 1.14 | 1.03 | 0.98 | 1.02 | 1.02 | 1.01 | 
9 | COc1ccc2c(n1)c(CCNC(C)=O)cn2CCNC(=O)CCc1ccc2n1[B-](F)(F)[N+]1=C(c3ccc[nH]3)C=CC1=C2 [Azamelatonin-1-NB590] |  |  |  |  |  |  |  |  |  |  | NanoBRET Fold Response (FPR3; 0.1μM tracer): 0.85; NanoBRET Fold Response (FPR3; 1μM tracer): 1.06; NanoBRET Fold Response (FZD8; 0.1μM tracer): 1.39; NanoBRET Fold Response (FZD8; 1μM tracer): 0.81; NanoBRET Fold Response (P2RY11; 0.1μM tracer): 0.89; NanoBRET Fold Response (P2RY11; 1μM tracer): 0.89; NanoBRET Fold Response (SSTR2; 0.1μM tracer): 1.07; NanoBRET Fold Response (SSTR2; 1μM tracer): 0.88; NanoBRET Fold Response (DRD5; 0.1μM tracer): 0.97; NanoBRET Fold Response (DRD5; 1μM tracer): 0.96
10 | CC(C)N(CC[C@H](c1ccccc1)c1cc(CCNC(=O)c2ccc(CNC(=O)CCc3ccc4n3[B-](F)(F)[N+]3=C(c5ccc[nH]5)C=CC3=C4)cc2)ccc1O)C(C)C [Tolterodine-BZ-NB590] | 0.71 | 0.93 | 1.00 | 1.02 | 1.07 | 0.96 | 0.95 | 1.00 | 1.02 | 1.18 | 
